The test system of one test is ARIP cells. As to the kind of experiment: Immunofluorescence for IDX-1, ARIP cells. Format: cell-based, rat. On the procedure: Cells were cultured on monocoated chamber slides (Nalge Nunc International; Naperville, Ill.) in the presence of GLP-1 (10 nM), or vehicle, for 72 h.
For the detection of IDX-1, slightly different conditions were used. Briefly: the concentration of paraformaldehyde was decreased to 2%, and the concentration of Triton to permeabilize the cells was raised to 0.2% Triton-X-100. Cells were then washed with 0.01 M PBS three times for 3-5 min, and non-specific binding was inhibited by using 5% chick serum in 0.01 M PBS, at room temperature for 60 min in a humid chamber. A rabbit IDX-1 antibody directed against the N-terminus of the frog homologue of the IDX-1 gene was used as the primary antibody (1:500 diluted with 0.1% Triton-X 100, 1% BSA in 0.01 M PBS), and slides were incubated at 4° C. overnight in a humid chamber. After washing, cells were incubated with a fluorescein-conjugated goat anti-rabbit IgG antibody (Molecular Probes, Inc. Eugene, Oreg.) and incubated at room temperature for 1 hour in a humid chamber. Nuclei of cells stained with anti-IDX-1 antibody were visualized with Hoechst […] dye (Sigma, St. Louis, Mo.). The percentage of IDX-1 containing cells was evaluated by counting the number of IDX-1 “positive” cells divided by the total number of cells identified by nuclear staining.

The subject of a further test is PANC-1 cells. Put plainly: Morphological changes (hematoxylin and eosin), parental PANC-1 cells. As to conditions: GLP-1 10 nM for 72 h. Type of test: cell-based, human. From the text:
Hematoxylin and eosin staining was employed, in some experiments, to show the morphological changes observed under the experimental conditions described below.

The next test concerns ARIP and PANC-1 cells. Put plainly: GLP-1 receptor (GLP-R) mRNA by cycle-titration RT-PCR. Format: cell-based. Conditions: GLP-1 10 nM for 72 h, transfected and non-transfected cells. The protocol: FIGS. 9A-C show GLP-1 receptor expression in ARIP and PANC-1 cells. ARIP and PANC-1 cells (transfected with human IDX-1, or solely with the neomycin resistant gene) were cultured in serum-free medium and treated with GLP-1 (10 nM), or vehicle alone, for 72 h. RT-PCR for GLP-R and β-actin was performed with a cycle-titration PCR (15, 20, 25, 30 PCR cycles) to assess the relative abundance of GLP-R transcript. Primers for both transcripts were added together in a single PCR-reaction for each individual sample. […] Each experiment was repeated four times, using RNA samples from independent cultures. The blots on the left represent one individual experiment, while the graphs on the right are the average of four independent experiments. The numeric values in the graphs represent the ratio of GLP-R mRNA to actin mRNA.
Treatment with GLP-1 induces the differentiation of ductal epithelial cells into insulin-producing cells. FIG. 2 illustrates a series of cell cultures grown with or without GLP-1 (10 nM) for 72 h. […] Preabsorption of the antibody with an excess of human recombinant insulin prevented the staining of insulin-positive GLP-1 treated cells (data not shown). While treatment with GLP-1 turned the majority of ARIP cells into glucokinase mRNAs, the same PCR conditions as described above were used in the presence of gene-specific primers. […]

Another test deals with PANC-1/IDX-1 cells. Put plainly: Flow cytometric (FACS) analysis for insulin, PANC-1/IDX-1 cells. As to conditions: GLP-1 10 nM, 72 h. Format: cell-based, human. On the procedure: PANC-1 cells were transfected with a pcDNA3 construct (Invitrogen; Carlsbad, Calif.) harboring the wild-type full-length IDX-1 cDNA using LipoTAXI (Catalog N. 204110; Mammalian Transfection Kit, Stratagene; La Jolla, Calif.). Control cells were transfected with the vector alone. The selection of positive (i.e. transfected) cells was carried out by culturing the cells in the presence of 400 μg/ml of G418 sulfate (GN-04, Omega; Tarzana, Calif.).
For fluorescence-activated cells sorting (FACS) analysis, cells were cultured in the presence of GLP-1 (10 nM), or vehicle, for 72 h, then washed with cold PBS (pH 7.4; three times) and incubated overnight, on ice, in PBS with 2% paraformaldehyde. After centrifugation, the cell pellet was resuspended in 400 μl of cold 0.1% Triton diluted in FACS buffer (PBS with 2% FCS). After several centrifugation and washes, the cells were resuspended in the assay buffer with of 10 μl of fluorescent-conjugated insulin antibody (Cat N. FM205, FITC: Chromaprobe, Inc; Mountain View, Calif.), in the presence of 10 μl of blocking antibody (anti-mouse IgG; Organon Teknika-Cappel, West Chester, Pa.). […] Flow cytometric analysis was performed with a FACScan[R] cytometer, using the LYSYS II program, and by fluorescence microscopy, as is well known in the art. […]
A general note: In flow cytometry, cells or beads pass a laser one at a time.

On to glucagon-like peptide-1 [GLP-1], for which the “effect on expression level of IDX-1” value in the test on ARIP cells (GLP-1 10 nM for 72 h) was “further increase”. The “cells expressing IDX-1” value in the test on ARIP cells (GLP-1 or vehicle, 400 cells counted) is “approximately 70%”. Moreover, in the test with PANC-1 cells, the morphological change entry is recorded as “did not respond”. Moreover, the “effect on GLP-R mRNA levels” value in the test with ARIP and PANC-1 cells was “further modest increase (no-statistically significant)”. Also, the “cultured cells converted from insulin negative to insulin positive” value in the test with PANC-1/IDX-1 cells turned out to be 61.7%.

The values are drawn from patent publication US6642003B2, “Human glucose-dependent insulin-secreting cell line” (Cedars-Sinai Medical Center, priority 2001, dated 2003).
